# Measurements as given in PMC5224880, “Discovery and Molecular Basis of a Diverse Set of Polycomb Repressive Complex 2 Inhibitors Recognition by EED” (PLoS ONE, 2017).
# Key:
# Type in all cases: biochemical
# [1] = target: EZH2 (EZH2/EED/SUZ12/RBAP48/AEBP2) (Homo sapiens, UniProt O75530+Q15910); assay: HMT panel selectivity: EZH2
# Excerpt: This assay employs liquid chromatography mass spectrometry technology using peptide or nucleosome as substrate and then detects the formation of the co-product SAH [11, 25].
# (§1) Note: for EZH2, EZH2/EED/SUZ12/RBAP48/AEBP2 was used in the assay; for EZH1, EZH1/EED/SUZ12/RBAP48/AEBP2 was used in the assay; for MLL, MLL/WDR5/RBBP5/ASH2L/ was use in the assay. a, H3K27me0 peptide was used as substrate for both EZH2 and EZH1 activity; b, H3K27me1 peptide was used as substrate for both EZH2 and EZH1 activity.
# [2] = target: MLL (MLL/WDR5/RBBP5/ASH2L) (Homo sapiens, UniProt Q03164); assay: HMT panel selectivity: MLL
# Experimental: as §1, with “activity. All HMT reactions were performed as described previously. ref: Proc Natl Acad Sci U S A. 2012 Dec 26;109(52):21360-5.” for “activity.”
# [3] = target: T1, Set7/9 (Homo sapiens, UniProt Q8WTS6); assay: HMT panel selectivity: Set7/9
# T1 sequence (Q8WTS6 1-366): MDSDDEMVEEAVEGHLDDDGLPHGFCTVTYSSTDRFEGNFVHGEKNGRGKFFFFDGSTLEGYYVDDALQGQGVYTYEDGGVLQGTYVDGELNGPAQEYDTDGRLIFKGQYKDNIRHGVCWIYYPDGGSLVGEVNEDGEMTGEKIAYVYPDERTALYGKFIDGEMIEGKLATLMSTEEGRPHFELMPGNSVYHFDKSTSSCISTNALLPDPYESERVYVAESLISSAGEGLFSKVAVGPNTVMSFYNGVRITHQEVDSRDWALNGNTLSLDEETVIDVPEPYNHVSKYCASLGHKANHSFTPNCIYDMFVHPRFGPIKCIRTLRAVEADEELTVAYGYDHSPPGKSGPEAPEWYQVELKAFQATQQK
# Experimental: as §1, with “activity. All HMT reactions were performed as described previously. ref: Proc Natl Acad Sci U S A. 2012 Dec 26;109(52):21360-5.” for “activity.”
# [4] = target: T2, G9a (Homo sapiens, UniProt Q96KQ7); assay: HMT panel selectivity: G9a
# T2 sequence (Q96KQ7 1-1210): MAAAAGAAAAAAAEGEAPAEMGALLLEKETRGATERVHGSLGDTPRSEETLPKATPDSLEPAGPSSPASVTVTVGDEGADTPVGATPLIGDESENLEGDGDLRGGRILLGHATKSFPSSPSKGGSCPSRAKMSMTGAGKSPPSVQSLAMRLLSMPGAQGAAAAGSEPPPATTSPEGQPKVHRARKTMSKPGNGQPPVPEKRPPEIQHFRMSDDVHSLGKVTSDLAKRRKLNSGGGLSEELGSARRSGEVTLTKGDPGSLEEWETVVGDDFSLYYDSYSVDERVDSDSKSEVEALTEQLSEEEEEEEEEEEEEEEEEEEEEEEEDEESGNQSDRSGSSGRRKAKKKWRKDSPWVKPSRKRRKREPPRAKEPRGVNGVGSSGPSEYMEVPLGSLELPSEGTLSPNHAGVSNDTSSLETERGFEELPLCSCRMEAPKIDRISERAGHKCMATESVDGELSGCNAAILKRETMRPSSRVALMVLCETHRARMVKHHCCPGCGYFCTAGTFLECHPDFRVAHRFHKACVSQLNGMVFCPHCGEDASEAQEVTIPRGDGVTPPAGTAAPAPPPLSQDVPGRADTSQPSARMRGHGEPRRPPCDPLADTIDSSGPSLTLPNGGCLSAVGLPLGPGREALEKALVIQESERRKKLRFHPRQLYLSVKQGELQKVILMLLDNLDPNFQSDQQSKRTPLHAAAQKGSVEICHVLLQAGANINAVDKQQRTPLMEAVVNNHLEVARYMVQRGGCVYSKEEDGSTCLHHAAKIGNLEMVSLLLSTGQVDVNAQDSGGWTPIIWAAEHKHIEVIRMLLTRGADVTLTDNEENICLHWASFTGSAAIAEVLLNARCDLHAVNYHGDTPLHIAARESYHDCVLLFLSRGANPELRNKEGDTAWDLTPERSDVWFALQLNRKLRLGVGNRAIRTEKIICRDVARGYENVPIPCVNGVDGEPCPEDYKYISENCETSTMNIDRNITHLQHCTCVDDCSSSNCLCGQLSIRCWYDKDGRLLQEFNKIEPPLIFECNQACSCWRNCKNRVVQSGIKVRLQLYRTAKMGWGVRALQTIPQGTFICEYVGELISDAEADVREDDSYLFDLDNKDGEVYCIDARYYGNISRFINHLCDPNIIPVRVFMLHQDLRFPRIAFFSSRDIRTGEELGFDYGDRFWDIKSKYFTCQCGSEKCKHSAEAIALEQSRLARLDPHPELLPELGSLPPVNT
# Experimental: as §1, with “activity. All HMT reactions were performed as described previously. ref: Proc Natl Acad Sci U S A. 2012 Dec 26;109(52):21360-5.” for “activity.”
# [5] = target: NSD1 (Homo sapiens, UniProt Q96L73); assay: HMT panel selectivity: NSD1
# Experimental: as §1, with “activity. All HMT reactions were performed as described previously. ref: Proc Natl Acad Sci U S A. 2012 Dec 26;109(52):21360-5.” for “activity.”
# [6] = target: SETD2 (Homo sapiens, UniProt Q9BYW2); assay: HMT panel selectivity: SETD2
# Experimental: as §1, with “activity. All HMT reactions were performed as described previously. ref: Proc Natl Acad Sci U S A. 2012 Dec 26;109(52):21360-5.” for “activity.”
# [7] = target: T3, CARM1 (Homo sapiens, UniProt Q86X55); assay: HMT panel selectivity: CARM1
# T3 sequence (Q86X55 1-608): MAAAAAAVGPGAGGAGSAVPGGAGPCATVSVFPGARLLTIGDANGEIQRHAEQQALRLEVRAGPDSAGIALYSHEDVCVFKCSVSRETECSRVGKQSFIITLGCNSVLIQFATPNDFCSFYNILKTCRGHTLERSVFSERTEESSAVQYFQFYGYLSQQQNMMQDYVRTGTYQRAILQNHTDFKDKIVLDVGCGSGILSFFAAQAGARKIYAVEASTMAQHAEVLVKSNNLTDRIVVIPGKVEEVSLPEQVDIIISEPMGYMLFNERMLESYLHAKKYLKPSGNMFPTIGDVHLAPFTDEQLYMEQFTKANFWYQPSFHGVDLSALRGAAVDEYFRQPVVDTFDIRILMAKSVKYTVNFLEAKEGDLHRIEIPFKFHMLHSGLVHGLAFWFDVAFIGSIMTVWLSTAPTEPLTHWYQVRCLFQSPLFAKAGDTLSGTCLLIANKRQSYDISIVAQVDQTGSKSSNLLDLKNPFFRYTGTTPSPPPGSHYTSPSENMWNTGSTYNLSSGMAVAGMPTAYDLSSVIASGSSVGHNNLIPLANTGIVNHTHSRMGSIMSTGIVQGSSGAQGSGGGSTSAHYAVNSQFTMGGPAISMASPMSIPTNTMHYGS
# Experimental: as §1, with “activity. All HMT reactions were performed as described previously. ref: Proc Natl Acad Sci U S A. 2012 Dec 26;109(52):21360-5.” for “activity.”
# [8] = target: PRMT8 (Homo sapiens, UniProt Q9NR22); assay: HMT panel selectivity: PRMT8
# PRMT8, sequence (Q9NR22 whole entry, species assumed): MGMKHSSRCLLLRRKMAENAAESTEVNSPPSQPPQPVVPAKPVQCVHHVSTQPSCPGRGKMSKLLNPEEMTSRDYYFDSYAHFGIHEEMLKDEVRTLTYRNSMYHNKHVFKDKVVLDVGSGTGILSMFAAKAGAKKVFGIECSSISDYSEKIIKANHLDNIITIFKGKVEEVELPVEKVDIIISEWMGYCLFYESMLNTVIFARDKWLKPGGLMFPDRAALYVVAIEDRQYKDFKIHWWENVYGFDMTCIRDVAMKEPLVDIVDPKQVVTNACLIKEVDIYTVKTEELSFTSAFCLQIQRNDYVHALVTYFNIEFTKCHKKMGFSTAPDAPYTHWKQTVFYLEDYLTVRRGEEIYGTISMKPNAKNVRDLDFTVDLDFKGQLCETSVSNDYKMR
# Experimental: as §1, with “activity. All HMT reactions were performed as described previously. ref: Proc Natl Acad Sci U S A. 2012 Dec 26;109(52):21360-5.” for “activity.”
# EZH2 (EZH2/EED/SUZ12/RBAP48/AEBP2), sequence (Q15910 whole entry): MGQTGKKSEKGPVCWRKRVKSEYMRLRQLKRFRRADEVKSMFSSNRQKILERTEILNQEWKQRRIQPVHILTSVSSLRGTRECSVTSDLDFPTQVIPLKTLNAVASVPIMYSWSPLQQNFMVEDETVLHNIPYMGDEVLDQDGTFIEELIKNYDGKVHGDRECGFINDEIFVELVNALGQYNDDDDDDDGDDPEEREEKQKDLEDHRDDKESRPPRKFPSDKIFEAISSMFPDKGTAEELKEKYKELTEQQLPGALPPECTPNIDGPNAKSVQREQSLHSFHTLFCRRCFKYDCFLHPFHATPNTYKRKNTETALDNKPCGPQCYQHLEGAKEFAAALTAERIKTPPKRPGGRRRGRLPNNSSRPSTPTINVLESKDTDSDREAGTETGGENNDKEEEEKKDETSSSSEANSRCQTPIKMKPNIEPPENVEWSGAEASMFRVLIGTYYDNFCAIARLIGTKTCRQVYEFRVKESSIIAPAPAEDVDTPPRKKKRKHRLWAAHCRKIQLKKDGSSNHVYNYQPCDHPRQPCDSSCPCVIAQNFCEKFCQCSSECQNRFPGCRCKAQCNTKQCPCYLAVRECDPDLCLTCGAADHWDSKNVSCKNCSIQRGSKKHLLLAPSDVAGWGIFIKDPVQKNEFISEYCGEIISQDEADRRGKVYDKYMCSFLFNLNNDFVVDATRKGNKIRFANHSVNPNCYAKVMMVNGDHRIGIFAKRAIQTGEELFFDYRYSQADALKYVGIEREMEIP
# EZH2 (EZH2/EED/SUZ12/RBAP48/AEBP2), sequence (O75530 whole entry): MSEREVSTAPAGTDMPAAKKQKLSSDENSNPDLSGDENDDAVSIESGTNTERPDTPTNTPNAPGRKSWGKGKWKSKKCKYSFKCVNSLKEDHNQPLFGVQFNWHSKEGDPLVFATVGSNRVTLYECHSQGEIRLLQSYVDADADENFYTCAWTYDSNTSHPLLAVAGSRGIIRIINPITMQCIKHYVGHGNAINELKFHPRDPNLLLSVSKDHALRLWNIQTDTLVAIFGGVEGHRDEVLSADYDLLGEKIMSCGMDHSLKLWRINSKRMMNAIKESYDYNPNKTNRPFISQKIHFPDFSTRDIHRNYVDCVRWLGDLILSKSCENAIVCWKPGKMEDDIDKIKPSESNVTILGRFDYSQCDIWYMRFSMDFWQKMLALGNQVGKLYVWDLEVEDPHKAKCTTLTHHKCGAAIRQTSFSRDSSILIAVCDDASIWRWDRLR
# EZH2 (EZH2/EED/SUZ12/RBAP48/AEBP2), sequence (Q15022 whole entry partner): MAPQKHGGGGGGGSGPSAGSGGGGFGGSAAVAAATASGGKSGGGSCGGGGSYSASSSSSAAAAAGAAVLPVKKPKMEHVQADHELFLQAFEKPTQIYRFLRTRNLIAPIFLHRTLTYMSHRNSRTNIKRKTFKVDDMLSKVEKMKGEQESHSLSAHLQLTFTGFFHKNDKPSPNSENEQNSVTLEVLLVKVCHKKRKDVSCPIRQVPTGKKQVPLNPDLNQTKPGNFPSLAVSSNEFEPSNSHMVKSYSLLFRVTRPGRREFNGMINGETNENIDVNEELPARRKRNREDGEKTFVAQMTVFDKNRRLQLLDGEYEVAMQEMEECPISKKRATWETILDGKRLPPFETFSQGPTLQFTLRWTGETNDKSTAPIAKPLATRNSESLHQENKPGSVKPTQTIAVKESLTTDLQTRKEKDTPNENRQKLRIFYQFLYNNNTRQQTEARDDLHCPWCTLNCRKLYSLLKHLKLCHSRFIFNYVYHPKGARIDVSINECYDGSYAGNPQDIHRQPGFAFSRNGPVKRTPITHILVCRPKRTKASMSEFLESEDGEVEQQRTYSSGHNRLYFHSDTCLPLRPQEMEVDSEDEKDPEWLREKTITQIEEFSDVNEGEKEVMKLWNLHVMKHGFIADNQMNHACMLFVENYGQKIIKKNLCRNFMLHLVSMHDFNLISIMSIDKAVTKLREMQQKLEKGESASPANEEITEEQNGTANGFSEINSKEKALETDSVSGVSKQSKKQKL
# EZH2 (EZH2/EED/SUZ12/RBAP48/AEBP2), sequence (Q09028 whole entry partner): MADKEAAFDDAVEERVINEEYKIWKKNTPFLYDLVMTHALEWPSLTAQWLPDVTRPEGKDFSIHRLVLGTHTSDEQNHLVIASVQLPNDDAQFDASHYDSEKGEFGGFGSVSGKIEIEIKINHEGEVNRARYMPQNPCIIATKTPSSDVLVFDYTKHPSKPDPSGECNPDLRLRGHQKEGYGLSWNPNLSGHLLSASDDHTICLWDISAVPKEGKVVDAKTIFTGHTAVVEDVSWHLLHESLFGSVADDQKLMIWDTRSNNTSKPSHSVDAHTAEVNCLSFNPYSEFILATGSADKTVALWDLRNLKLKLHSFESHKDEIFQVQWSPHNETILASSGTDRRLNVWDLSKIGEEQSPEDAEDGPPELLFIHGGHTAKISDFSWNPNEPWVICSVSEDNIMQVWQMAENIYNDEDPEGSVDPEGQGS
# EZH2 (EZH2/EED/SUZ12/RBAP48/AEBP2), sequence (Q6ZN18 whole entry partner): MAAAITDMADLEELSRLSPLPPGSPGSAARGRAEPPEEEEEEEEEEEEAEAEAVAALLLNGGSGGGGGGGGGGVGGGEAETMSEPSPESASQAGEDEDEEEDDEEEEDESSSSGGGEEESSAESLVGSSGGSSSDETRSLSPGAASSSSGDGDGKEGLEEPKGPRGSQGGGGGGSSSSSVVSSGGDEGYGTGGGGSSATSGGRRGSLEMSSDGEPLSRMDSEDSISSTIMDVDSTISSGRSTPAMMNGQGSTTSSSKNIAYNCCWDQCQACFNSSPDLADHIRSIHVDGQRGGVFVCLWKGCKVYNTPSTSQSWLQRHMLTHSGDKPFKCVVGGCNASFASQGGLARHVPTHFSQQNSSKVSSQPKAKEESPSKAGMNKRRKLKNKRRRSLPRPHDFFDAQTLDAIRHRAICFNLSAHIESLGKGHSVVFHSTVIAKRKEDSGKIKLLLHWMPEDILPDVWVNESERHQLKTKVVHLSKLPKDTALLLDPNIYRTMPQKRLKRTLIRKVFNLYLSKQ
IC50 [1] [µM],IC50 [2] [µM],IC50 [3] [µM],IC50 [4] [µM],IC50 [5] [µM],IC50 [6] [µM],IC50 [7] [µM],IC50 [8] [µM],SMILES
99,> 100,> 100,> 100,> 100,> 100,> 100,> 100,Cc1cc(C)n(-c2cc(N3CCc4ccccc4C3)ccc2[N+](=O)[O-])n1 [EED666]
,> 100,> 100,> 100,> 100,> 100,> 100,> 100,COc1ccccc1CN1CC(c2cn(C)c3ccccc23)C(N(C)C)C1 (centres unmarked) [EED709]

# Further lines, the compound ahead of its results:
SMILES,IC50 [1] [µM],IC50 [2] [µM],IC50 [3] [µM],IC50 [4] [µM],IC50 [5] [µM],IC50 [6] [µM],IC50 [7] [µM],IC50 [8] [µM]
COc1cc(-c2cc3n(c(=N)c2C#N)CCc2cc4c(cc2-3)OCO4)ccc1OC(C)C [EED396],87,> 100,> 100,> 100,> 100,> 100,> 100,> 100
N#Cc1c2c(c3nncn3c1NCc1ccco1)CN(Cc1ccccc1)CC2 [EED162],2.2,> 100,> 100,> 100,> 100,> 100,> 100,> 100
COc1cccc(CC2CC3Cc4c(cccc4OC)CC3N(C)C2)c1 (centres unmarked) [EED210],,> 100,> 100,> 100,> 100,> 100,> 100,> 100
